From patent US20250228862A1, “METHODS OF USING ATR INHIBITORS” (Repare Therapeutics Inc., priority 2022, published 2025) come the findings set out here.

Data set [1] deals with RPE1-hTERT-ΔTP53 STAG2 KO cells. Kind of data set: Colony formation (crystal violet) survival of STAG2-KO cells. The format is cell-based, human. The note with it: 10 days treatment, 6-well plate. As to the method: RPE1-hTERT-ATP53-STAG2 KO cells were seeded in 6-well plate format and treated with the indicated dose of compound 121 for 10 days. Cells were then fixed and stained using a crystal violet-methanol solution. Colonies were counted, and percentage of survival was determined by normalizing the number of colonies after treatment to the number of colonies in the non-treated conditions.
To assess the impact of STAG2 deficiency in the response to ATRi, we generated RPE1-hTERT-ΔTP53 deficient for STAG2 by knocking out the gene using CRISPR-Cas9. To avoid potential off-target effects, two distinct sgRNA were used to generate each KO clone.

In data set [2] the test system is T24 STAG2 KO cells. Kind of data set: Colony formation of bladder carcinoma cells deficient for STAG2. The format is cell-based. The settings on record: 9 days treatment, crystal violet. As to the method: FIG. 2: compound 121 preferentially induces cell death in bladder carcinoma cells deficient for STAG2. The STAG2 gene was knocked out in T24 cells using CRISPR-Cas9 (clone 1 and 2). Cells were seeded in 6-well plate format and treated with indicated dose of compound 121 for 9 days. Cells were then fixed and stained using a crystal violet-methanol solution. Colonies were counted, and percentage of survival was determined by normalizing the number of colonies after treatment to the number of colonies in the non-treated conditions.
Because bladder carcinoma is a cancer where STAG2-deficient tumors have been observed, we sought to recapitulate our observation in a cell model originated from bladder carcinoma. Using a similar approach as previously, we generated T24 cells deficient for STAG2.

Data set [3] concerns SETD2 wild-type and SETD2-mutated (LOF) renal and colorectal carcinoma cell lines. Kind of data set: CellTiter Glo viability in SETD2 WT and LOF cell line panel. The format is cell-based. The note with it: three SETD2-deficient vs six SETD2-proficient lines; 4-8 population doublings; on average. The text has this: FIG. 4A: Representative immunoblot showing SETD2 expression in whole-cell extracts from six SETD2 wild-type (WT) renal and colorectal carcinoma cell lines and loss of SETD2 in three SETD2-mutated (LOF) cell lines. Vinculin was used as a loading control.
FIG. 4B: compound 121 IC50 values from CellTiter Glo viability assays of SETD2 WT and LOF cell lines treated with compound 121 for 4-8 population doublings. Circles represent mean IC50 values from ≥3 independent experiments. Bars, mean of each cohort (WT or LOF); error bars, ±SD.
To study whether SETD2 deficiency leads to ATRi sensitivity in a more clinically relevant context, we assembled a panel of six SETD2-proficient and three SETD2-deficient renal clear cell carcinoma and colorectal carcinoma cell lines (FIG. 4A) and treated them with compound 121.
In general terms: Cellular ATP, detected with luciferase, serves as a proxy for viable cell number.

For data set [4], the system named is CDK12 wild-type (+/+) and knockout (−/−) RPE1 TP53−/− cells. The experiment in a line: CellTiter Glo viability, isogenic CDK12 +/+ and -/- RPE1 TP53-/- cells. The format is cell-based, human. The note with it: RPE1-hTERT-ΔTP53. Here is the method:
FIG. 5A: Dose-response curves of isogenic CDK12 wild-type (+/+) and knockout (−/−) RPE1 TP53−/− cells treated with compound 121. Cell viability was measured by CellTiter Glo assays. Open symbols represent mean from three independent experiments±SD. Solid lines show a non-linear least square fit to a four-parameter dose-response model. Approximately a 2× shift in IC50 was observed.
(§1) To assess the effect of CDK12 inactivation on ATRi sensitivity we used isogenic cell line pairs in the RPE1-hTERT-ΔTP53 and DLD1 human cell line backgrounds, where we compared clones carrying a CRISPR/Cas9-generated knockout of the CDK12 gene (CDK12−/−) with the parental, CDK12-wild type controls (CDK12+/+).

Data set [5] relates to CDK12 wild-type (+/+) and knockout (−/−) DLD1 cells. Kind of data set: CellTiter Glo viability, isogenic CDK12 +/+ and -/- DLD1 cells. It counts as cell-based, human. Here is the method: FIG. 5B: Dose-response curves of isogenic CDK12 wild-type (+/+) and knockout (−/−) DLD1 cells treated with compound 121. Cell viability was measured by CellTiter Glo assays. Open symbols represent mean from three independent experiments ±SD. Solid lines show a non-linear least square fit to a four-parameter dose-response model. Approximately a 3× shift in IC50 was observed.
as §1

Data set [6] relates to RNASEH2B wild-type (+/+) and knockout (−/−) 5637 cells. Kind of data set: CellTiter Glo viability, isogenic RNASEH2B +/+ and -/- 5637 cells. The format is cell-based, human. Here is the method:
FIG. 6B: Dose-response curves of isogenic RNASEH2B wild-type (+/+) and knockout (−/−) 5637 cells treated with compound 121. Cell viability was measured by CellTiter Glo assays. Open symbols represent mean from three independent experiments±SD. Solid lines show a non-linear least square fit to a four-parameter dose-response model. […] Approximately a 4× shift in IC50 was observed.
The RNase H2 protein complex is composed of three subunits encoded by the RNASEH2A, RNASEH2B and RNASEH2C genes in a manner, where all three subunits are required for the complex' stability and activity. To determine whether RNase H2 deficiency increases cellular sensitivity to ATRi, we inactivated the RNASEH2B gene in two human cell lines, RPE1-hTERT-ΔTP53 and 5637, using CRISPR/Cas9 (note that this leads to complete loss of the RNase H2 complex).

Data set [7] has as its system triple-negative breast cancer (TNBC) PDX tumors with RNASEH2B IHC loss. The experiment in a line: TNBC PDX tumor growth with RNASEH2B IHC loss. The format is in vivo. Here is the method: FIG. 8A: Growth of subcutaneously implanted triple-negative breast cancer (TNBC) PDX tumors with RNASEH2B IHC loss in immunodeficient mice. Mice were treated by oral gavage with either vehicle or indicated doses of compound 121 once daily at a 3 day on/4 day off intermittent weekly schedule. Data are shown as mean±SEM. N=9 mice/group.
FIG. 8B: Immunohistochemical (IHC) staining of the PDX model from FIG. 8A (top) and a control, RNase H2-proficient PDX (bottom) with an RNase H2-specific antibody.
To confirm that RNase H2-deficiency sensitizes to ATRi treatment also in vivo, we developed the isogenic 5637 RNASEH2B+/+ and RNASEH2B−/− bladder carcinoma cell lines as subcutaneous xenografts in immunodeficient mice and treated them with compound 121 or a vehicle control. […] Furthermore, we identified a patient-derived xenograft (PDX) of a triple negative breast cancer, that was RNase H2-deficient as confirmed by immunohistochemistry with a RNase H2-specific antibody.

The structures appear in SMILES notation.

Regarding `C[C@@H]1COCCN1c1cc([C@]2(O)C[C@H]3CC[C@@H](C2)O3)c2cnn(-c3cc[nH]n3)c2n1` [compound 121], the “Cell death / percentage of survival by colony formation, STAG2-KO vs WT” value in data set [1] was “induces cell death preferentially in STAG2-KO cells”. For the same compound, in data set [2], the “Colony formation after treatment, T24-STAG2 KO” value is reported as “colony formation of T24-STAG2 KO cells was impaired”. Besides, the “Sensitivity (CTG IC50) of SETD2-deficient vs SETD2-proficient cell lines” value in data set [3] was “SETD2-deficient cell lines were more sensitive”. In addition, the “Sensitivity of CDK12-deficient vs parental cells” value in data set [4] and in data set [5] was “increased sensitivity” in each case. Also, in data set [6], the “Sensitivity of RNase H2-deficient vs wild-type cells” value is “more sensitive”. Also, in data set [7] (maximum tolerated dose, oral gavage, 3 day on/4 day off), the “Tumor response at the maximum tolerated dose” value is “tumor regressions”. Moreover, the “Response of PDX model to treatment” value in data set [7] (oral gavage once daily, 3 day on/4 day off weekly schedule) is “responsive”.
